Results reported in article PMC11249646, “Small-Molecule Disruptors of the Interaction between Calcium- and Integrin-Binding Protein 1 and Integrin αIIbβ3 as Novel Antiplatelet Agents” (ACS Pharmacology & Translational Science, 2024).
pIC50: −log10 of the molar value. Read-outs that look alike come from different tables or passages of the source. Where a SMILES comes first, the peptide text is derived from it. The star is where a group is joined. Cbz = O=C(OCc1ccccc1)*; CH2Cl = ClC*

Target: T1, CIB1 and αIIb interaction (CIB1-GST : F-αIIb peptide) (Homo sapiens, UniProt Q99828)
T1 construct: made in house; host or cells: BL-21 plus RIL cells (E. coli)
T1 sequence (Q99828 1-191): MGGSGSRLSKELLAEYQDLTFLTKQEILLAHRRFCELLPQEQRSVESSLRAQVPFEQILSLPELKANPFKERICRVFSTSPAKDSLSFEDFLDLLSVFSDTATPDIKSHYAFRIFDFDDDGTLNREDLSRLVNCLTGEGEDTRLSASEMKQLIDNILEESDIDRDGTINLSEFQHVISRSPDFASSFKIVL
Assay: FP assay, 1536-well qHTS format (primary and confirmatory screen)
Type: binding
Settings: for Efficacy (%): negative = inhibition; for Curve Class: negative sign = inhibitory curve; for pIC50: read-out: IC50

[1] = qHTS primary screen of LOPAC/NPACT libraries
[2] = qHTS primary screen hits, Table S2, NPACT library
[3] = qHTS primary screen hits, Table S2
[4] = qHTS primary screen hits, Table S2, several classes where COUNT > 1

| SMILES | Efficacy (%) [1] [%] | Curve Class [1] | pIC50 [1] | Curve Class [2] | Efficacy (%) [3] [%] | pIC50 [3] | Curve Class [4] | Curve Class [3] |
| --- | --- | --- | --- | --- | --- | --- | --- | --- |
| COc1c(C)c(OCC(O)C(C)(C)O)cc2c1CNC2=O (stereo not drawn) [NCGC00385487-01] | -28 | -2.4 | 4.25 |  |  |  |  |  |
| O=C(O)c1cc(O)c2cccc(O)c2c1O[C@@H]1O[C@H](CO)[C@@H](O)[C@H](O)[C@H]1O [NCGC00385595-01] | -31 | -2.4 | 4.40 |  |  |  |  |  |
| C=C1C(=O)O[C@@H]2C3=C(C)CCC[C@]3(C)CC[C@@]12O [NCGC00385722-01] | -30 | -2.4 | 4.30 |  |  |  |  |  |
| O=C(O)CC1(O)C(=O)Nc2ccccc21 (stereo not drawn) [NCGC00385842-01] | -28 | -2.4 | 4.25 |  |  |  |  |  |
| C=C1C(=O)OC2/C=C(\C)CC/C=C(\C)CC(OC(C)=O)C12 (stereo not drawn) [NCGC00385946-01] | -21 | -1.4 | 4.95 |  |  |  |  |  |
| C/C=C/C=C/c1cc2c(C=O)c(O)c(CC=C(C)C)cc2o1 [NCGC00386103-01] | -28 | -2.4 | 4.20 |  |  |  |  |  |
| O=C(NCc1ccc(Oc2ccccc2)cc1)c1nc(-c2cc(Br)c(O)c(Br)c2)no1 [NCGC00386303-01] | -24 | -1.4 | 4.75 |  |  |  |  |  |
| C=CC(=O)Nc1cccc(Nc2nc(Nc3ccc(OCCOC)cc3)ncc2F)c1 [NCGC00386306-06] | -22 | -1.4 | 5.00 |  |  |  |  |  |
| Cc1ccccc1NC(=O)Nc1ccc(CN2C(=O)N([C@@H](CC(C)C)C(=O)N[C@@H](CC(=O)O)c3ccccc3)C(=O)C2(C)C)cc1 [NCGC00386592-01] | -28 | -2.4 | 4.25 |  |  |  |  |  |
| Cc1cc2occ(CN(C)CCN(C)Cc3cn(-c4cccc(C(F)(F)F)c4)c4ccccc34)c(=O)c2cc1C.Cl [NCGC00386701-02] | -31 | -2.4 | 4.10 |  |  |  |  |  |
| CC/C(=C(\c1ccc(O)cc1)c1ccc(OCCNC)cc1)c1ccccc1 [NCGC00386714-01] | -33 | -2.4 | 4.10 |  |  |  |  |  |
| CCOc1ccc(-c2cc(NC(=O)c3c(F)cccc3F)c(C(=O)O)s2)cc1 [NCGC00386875-01] | -21 | -1.4 | 4.85 |  |  |  |  |  |
| CCc1c(-c2ccccc2)c(-c2ccccc2)nn1-c1ccccc1-c1cccc(OCC(=O)O)c1 [NCGC00387254-02] |  |  |  | -2.4 | -30 | 4.25 |  |  |
| O=C1Nc2ccc3ncsc3c2/C1=C/c1c[nH]cn1 [NCGC00387501-01] |  |  |  | -1.4 | -27 | 5.15 |  |  |
| N#C/C(=C1\Nc2ccccc2S1)c1ccnc(NCCc2cccnc2)n1 [NCGC00387772-02] | -26 | -1.4 | 5.25 |  |  |  |  |  |
| N=C(N)c1ccc2c(c1)N/C(=C1/C=C(CC(=O)NC(CC(=O)O)C(=O)O)C=C(c3cc(S(N)(=O)=O)ccc3O)C1=O)N2 (stereo not drawn) [NCGC00387860-01] | -31 | -1.4 | 5.15 |  |  |  |  |  |
| O=C(Nc1ncc([N+](=O)[O-])s1)c1ccccc1O [NCGC00388427-01] | -31 | -2.4 | 4.35 |  |  |  |  |  |
| COc1ccnc(C[S+]([O-])c2nc3cc(OC(F)F)ccc3[nH]2)c1OC (stereo not drawn) [NCGC00388526-02] | -26 | -2.4 | 4.25 |  |  |  |  |  |
| NS(=O)(=O)c1ccc(Cc2c(-c3ccc(F)c(-c4cccs4)c3)nn(-c3nc(C(=O)O)cs3)c2CC2CC2)cc1F.O=C(O)C(F)(F)F [NCGC00390071-01] |  |  |  |  | -33 | 4.30 | -2.2 |  |
| COc1cc(Nc2cc(C#N)nc3cc(OCCCN4CCN(C)CC4)c(OC)cc23)c(Cl)cc1Cl [NCGC00390366-01] | -33 | -2.4 | 4.25 |  |  |  |  |  |
| O=C([O-])CCNc1cc(N2CCc3ccccc3CC2)nc(-c2ccccn2)n1.[Na+] [NCGC00390406-01] |  |  |  |  | -28 | 4.58 |  | -2.4 |
| Nc1nccn2c(C3CCC(C(=O)O)CC3)nc(-c3cc4cccc(Cl)c4[nH]3)c12 (stereo not drawn) [NCGC00390408-01] | -33 | -2.4 | 4.30 |  |  |  |  |  |
| COc1cc(N2CCC(N3CCN(C)CC3)CC2)ccc1Nc1ncc(Cl)c(-c2c[nH]c3ccccc23)n1 [NCGC00390583-01] | -31 | -2.4 | 4.30 |  |  |  |  |  |
| COc1cc(Nc2ccc([N+](=O)[O-])cc2C(=O)O)cc2ccccc12 [NCGC00402240-03] | -27 | -2.4 | 4.30 |  |  |  |  |  |

| SMILES | Efficacy (%) [1] [%] | Curve Class [1] | pIC50 [1] | Curve Class [2] | Efficacy (%) [3] [%] | pIC50 [3] | Curve Class [4] | Curve Class [3] |
| --- | --- | --- | --- | --- | --- | --- | --- | --- |
| CCCc1n[nH]c2c1C(c1cc(Cl)cc(Cl)c1O)C(C#N)=C(N)O2 (stereo not drawn) [NCGC00402340-02] | -29 | -2.4 | 4.35 |  |  |  |  |  |
| COCc1ccc(-c2nn(Cc3ccccc3)c3ccccc23)o1 [NCGC00479273-01] |  |  |  |  | -37 | 4.25 | -2.4 |  |
| Cc1sc2c(c1C)C(c1ccc(Cl)cc1)=N[C@@H](CC(=O)Nc1ccc(OCCOCCOCCOCCNc3cccc4c3C(=O)N(C3CCC(=O)NC3=O)C4=O)cc1)c1nnc(C)n1-2 (stereo partly drawn) [NCGC00483927-01] | -26 | -2.4 | 4.65 |  |  |  |  |  |
| C=CC(=O)Nc1ccc(CN2C(=O)N(c3cc(OC)cc(OC)c3)Cc3cnc(Nc4ccc(N5CCN(C)CC5)cc4)nc32)cc1 [NCGC00484066-01] | -26 | -2.4 | 4.25 |  |  |  |  |  |
| CN1CCN(c2ccc(C(=O)Nc3n[nH]c4ccc(Cc5cc(F)cc(F)c5)cc34)c(NC3CCOCC3)c2)CC1 [NCGC00484067-01] | -21 | -2.4 | 4.25 |  |  |  |  |  |
| O=C([C@@H]1CCCN(c2ccc3[nH]c(C4(n5cc(Cl)cn5)CC4)nc3n2)C1)N1CCCC1 [NCGC00485074-01] | -26 | -2.4 | 4.15 |  |  |  |  |  |
| CCOc1ccc(Cc2nc(-c3c(C)nc4ccccn34)cs2)cc1 [NCGC00485083-01] | -29 | -2.4 | 4.35 |  |  |  |  |  |
| C=C1C(=O)O[C@@H]2[C@H]3C(C)=CC(=O)C3=C(C)CC[C@@H]12 [NCGC00485131-01] | -24 | -1.4 | 5.00 |  |  |  |  |  |
| Oc1ccc2c3c1O[C@H]1c4[nH]c5c(N=C=S)cccc5c4C[C@@]4(O)[C@@H](C2)N(CC2CC2)CC[C@]314 [NCGC00485321-01] | -30 | -2.4 | 4.00 |  |  |  |  |  |
| CC(=O)N[C@@H](CC(=O)O)C(=O)N[C@@H](CCC(=O)O)C(=O)N[C@H](C(=O)N[C@@H](CC(=O)O)C(=O)Nc1ccc2c(C)cc(=O)oc2c1)C(C)C [NCGC00485360-01] |  |  |  | -2.4 | -37 | 4.40 |  |  |
| CC(C)C[C@H](NC(=O)CNC(=O)OCc1ccccc1)C(=O)N[C@@H](Cc1ccccc1)C(=O)CCl [NCGC00485375-01] (Cbz-Gly-Leu-Phe-CH2Cl) | -24 | -2.4 | 4.65 |  |  |  |  |  |
| CN(C)c1ccc(NC(=O)NS(=O)(=O)c2ccc(Cl)cc2)cc1 [NCGC00485899-01] | -32 | -2.4 | 4.30 |  |  |  |  |  |
| Cc1ccc(-c2c(C(=O)CCl)n(CCCO)c3ncnc(N)c23)cc1 [NCGC00485901-01] | -25 | -1.4 | 5.46 |  |  |  |  |  |
| O=C(O)/C=C/c1ccc(-c2ccc(O)c(C34CC5CC(CC(C5)C3)C4)c2)cc1 [NCGC00485908-01] | -26 | -2.4 | 4.35 |  |  |  |  |  |
| Cc1cc(OCCCS(C)(=O)=O)cc(C)c1-c1cccc(COc2ccc(-c3cc(=O)[nH][s+]3[O-])cc2)c1 (stereo not drawn) [NCGC00485952-01] | -27 | -1.4 | 5.40 |  |  |  |  |  |
| COc1ccc(C2CC(=O)Nc3nc(N4CCCCC4)sc32)c(OC)c1.O=C(O)C(F)(F)F (stereo not drawn) [NCGC00488246-02] |  |  |  |  | -89 | 4.25 | -2.3 |  |
| O=C(O)C(F)(F)F.O=C1CC(c2ccc(F)cc2F)c2sc(N3CCOCC3)nc2N1 (stereo not drawn) [NCGC00488253-02] |  |  |  |  | -42 | 4.30 | -2.4 |  |
| O=C(O)C(F)(F)F.O=C1CC(c2ccccc2F)c2sc(N3CCOCC3)nc2N1 (stereo not drawn) [NCGC00488254-02] |  |  |  |  | -42 | 4.25 | -2.4 |  |
| O=C(O)C(F)(F)F.O=C1CC(c2ccccc2Br)c2sc(N3CCOCC3)nc2N1 (stereo not drawn) [NCGC00488255-02] |  |  |  |  | -54 | 4.10 | -2.4 |  |
| COc1ccc(C2CC(=O)Nc3nc(N4CCOCC4)sc32)c(OC)c1.O=C(O)C(F)(F)F (stereo not drawn) [NCGC00488259-02] |  |  |  |  | -59 | 4.25 | -2.4 |  |
| O=C(O)C(F)(F)F.O=C1CC(c2ccc(F)cc2Cl)c2sc(N3CCOCC3)nc2N1 (stereo not drawn) [NCGC00488260-02] |  |  |  |  | -41 | 4.30 | -2.4 |  |
| O=C(O)C(F)(F)F.O=C1CC(c2c(F)cccc2F)c2sc(N3CCOCC3)nc2N1 (stereo not drawn) [NCGC00488261-02] |  |  |  |  | -47 | 4.25 | -2.4 |  |
| CNc1nc2c(s1)C(c1ccc(OC)cc1OC)CC(=O)N2.O=C(O)C(F)(F)F (stereo not drawn) [NCGC00488262-02] |  |  |  |  | -39 | 4.25 |  | -2.4 |
